Measured values: patent publication US6451784B1 (priority 1996, dated 2002)
Entries after “also recorded” stand apart in the source; their conditions may differ. Like-named read-outs stand apart in the source and are kept apart here. Starred links: 1 amine or outer side, 2 acyl side, 3 side chain; linkers in the order of their positions; H or OH if unused. Positions of bridges follow the written chain, without caps; N, C: chain ends. Non-standard residues stand in square brackets, D forms with d. Residues, ends and D or L forms follow the SMILES beside them. Chains are numbered I, II in the order given. Actinocin(9to1) = Cc1c2oc3c(C)ccc(C(=O)[*:1])c3nc-2c(C(=O)[*:2])c(N)c1=O; NMeV = CN[C@H](C(=O)O)C(C)C; Sar = CNCC(=O)O

Key:
[1] = tested on: patients; conditions: cited from earlier work
[2] = share of drug bound in a protein-containing solution; cited from earlier work
[3] = tested on: 68-2 Adenocarcinoma Cells
[4] = tested on: rats; conditions: rat, in vivo
[5] = tested on: neoplastic lung disease; parameters: species or system dogs; conditions: dog, in vivo
[6] = tested on: healthy animals; conditions: in vivo; cited from earlier work
[7] = dog, in vivo
[8] = tested on: gross metastatic disease, micrometastatic hemangiosarcoma or micrometastatic primary lung cancer; parameters: species or system dogs; conditions: dog, in vivo
[9] = tested on: mice; conditions: intraperitoneal pretreatment, bleomycin subcutaneous; cited from earlier work

CCc1c2c(nc3ccc(OC(=O)N4CCC(N5CCCCC5)CC4)cc13)-c1cc3c(c(=O)n1C2)COC(=O)[C@]3(O)CC [Irinotecan]
Pulmonary toxicity of the IV administered drug [1]: no mention is made of pulmonary toxicity

Nc1ccn([C@@H]2O[C@H](CO)[C@@H](O)[C@@H]2O)c(=O)n1 [cytarabine]
Protein binding affinity [2]: 13%

CC(=O)[C@]1(O)Cc2c(O)c3c(c(O)c2[C@@H](O[C@H]2C[C@H](N)[C@H](O)[C@H](C)O2)C1)C(=O)c1ccccc1C3=O [Idarubicin]
Pulmonary toxicity of the IV administered drug [1]: no mention is made of pulmonary toxicity

Cc1c2oc3c(C)ccc(C(=O)N[C@@H]4C(=O)N[C@H](C(C)C)C(=O)N5CCC[C@H]5C(=O)N(C)CC(=O)N(C)[C@@H](C(C)C)C(=O)O[C@@H]4C)c3nc-2c(C(=O)N[C@@H]2C(=O)N[C@H](C(C)C)C(=O)N3CCC[C@H]3C(=O)N(C)CC(=O)N(C)[C@@H](C(C)C)C(=O)O[C@@H]2C)c(N)c1=O [Dactinomycin] (I: T[dV]P[Sar][NMeV] / II: T[dV]P[Sar][NMeV]; ester I:1-I:C, II:1-II:C; linker I:N-II:N via Actinocin(9to1))
Pulmonary toxicity of the IV administered drug [1]: no mention is made of pulmonary toxicity

carboplatin
Mean Lung Weight ([3]; Group 2, IV 180 mg/m^2, Day 61): 1.37 ± 0.16 g
Mean Percentage of Lung W/Tumors ([3]; Group 2, IV 180 mg/m^2, Day 61): 10 ± 0%
Mean Lung Weight ([3]; Group 3, IV 300 mg/m^2, Day 61): 1.37 ± 0.11 g
Mean Percentage of Lung W/Tumors ([3]; Group 3, IV 300 mg/m^2, Day 61): 10 ± 0%
Lung covered by tumor ([3]; rat, IV 180 or 300 mg/m^2, Day 61): 10%
Average lung and lung tumor weight ([3]; rat, both low (180 mg/m^2) and high (300 mg/m^2) dose, Day 61): 1.37 gram
Tolerated dose when given by inhalation [4]: up to 1.9 mg/m^2

CC[C@]1(O)C[C@H]2CN(CCc3c([nH]c4ccccc34)[C@@](C(=O)OC)(c3cc4c(cc3OC)N(C=O)[C@H]3[C@@](O)(C(=O)OC)[C@H](OC(C)=O)[C@]5(CC)C=CCN6CC[C@]43[C@@H]65)C2)C1 [Vincristine, vincristine]
Pulmonary toxicity of the IV administered drug [1]: no pulmonary toxicity noted

O=P1(N(CCCl)CCCl)NCCCO1 (stereo not drawn) [CTX]
Results [5]: SD lung

CO[C@@]12[C@H](COC(N)=O)C3=C(C(=O)C(C)=C(N)C3=O)N1C[C@@H]1N[C@@H]12 [Mutamycin, mitomycin]
Toxic effects to the respiratory tract [6]: the most severe results

COc1cccc2c1C(=O)c1c(O)c3c(c(O)c1C2=O)C[C@@](O)(C(=O)CO)C[C@@H]3O[C@H]1C[C@H](N)[C@H](O)[C@H](C)O1 [Doxorubicin, doxorubicin]
Pulmonary toxicity of the IV administered drug [1]: no indication of pulmonary toxicity
Clearance from the lung after pulmonary administration [7]: not rapidly cleared from the lung
Damage to the respiratory tract at necropsy [7]: no damage to the respiratory tract was observed
Peak blood levels following inhalation exposure compared with IV [7]: over an order of magnitude lower
Systemic doxorubicin level after about 4 hours, IV relative to pulmonary route [7]: about six times higher
Initial plasma concentration at 2 minutes, IV relative to pulmonary route ([7]; iv, 1 mg/kg): about 1.5 orders of magnitude
Outcome after inhalation treatment [8]: alive with no evidence of disease 81 days later
Disease in the lung ([8]; iv): no evidence of disease in the lung
Development of lung metastases [5]: no metastases developed in the lung for four months

C[C@@H](CN1CC(=O)NC(=O)C1)N1CC(=O)NC(=O)C1 [dexrazoxane]
Protection against bleomycin-induced pulmonary damage [9]: reduced pulmonary alterations particularly fibrosis

O=P1(N(CCCl)CCCl)NCCCO1 (stereo not drawn) [Cyclophosphamide, cyclophosphamide]
Toxic effects to the respiratory tract [6]: only mild inflammation

CC(=O)O[C@H]1C(=O)[C@@]2(C)[C@H]([C@H](OC(=O)c3ccccc3)[C@]3(O)C[C@H](OC(=O)[C@H](O)[C@@H](NC(=O)c4ccccc4)c4ccccc4)C(C)=C1C3(C)C)[C@]1(OC(C)=O)CO[C@@H]1C[C@@H]2O [Taxol, Paclitaxel]
Pulmonary toxicity of the IV administered drug [1]: pulmonary toxicity is not listed
Outcome after inhalation treatment [8]: no evidence of disease
Results [8]: SD (PR after; also recorded: PD (PR noted; also recorded: Alive and NED
Results [5]: SD (4 weeks) lung; also recorded: PD lung, Rx discontinued

COc1cc([C@@H]2c3cc4c(cc3[C@@H](O[C@@H]3O[C@@H]5CO[C@@H](C)O[C@H]5[C@H](O)[C@H]3O)[C@H]3COC(=O)[C@H]23)OCO4)cc(OC)c1O [Etoposide, etoposide]
Pulmonary toxicity of the IV administered drug [1]: no indication of pulmonary toxicity
